The values below come from US20080220065A1, “Compositions for treating foot odor and methods of use thereof” (priority 2007, published 2008).

The test system of series [1] is foot odor. The series can be described thus: initial empirical use studies in footwear. The source says:
Initial empirical use studies involved finely divided elemental copper powder.

For series [2], the system named is ubiquitous microbial cultures collected from common household and mammalian sources. The series can be described thus: filter disc incubation with streak-inoculated microbial cultures. It counts as cell-based. The note with it: filter discs impregnated by aqueous saturation, incubated with the cultures. The procedure:
Initial comparative studies were conducted in an effort to validate the antimicrobial activities of cupric compounds, wherein ubiquitous microbial cultures were collected from common household and mammalian sources and isolated in identifiable colonies by streak inoculation.

Series [3] has as its system foot odor. The series is described as follows: efficacy duration study, twenty-six persons, right vs left footwear, olfactory evaluation. The conditions noted are these: for olfactory evaluation of footwear and feet: three days following administration. It is filed as in vivo, human. The procedure:
Thereafter, to test the efficacy duration of the preferred mixture and concentration of the present invention, a study was conducted of twenty-six persons, male and female, ranging in ages from 7-71 years, all presenting with foul and distressing foot odor. These twenty-six persons had all of their “right-side” footwear treated with 1-1.25 g of cupric carbonate and their “left-side” footwear with 1-1.25 g sodium bicarbonate. Three days following administration, each shoe worn and both feet of each participant were evaluated via olfactory sense. Evaluation results were the same, without exception, for all participants.

The subject of series [4] is foot odor. The series can be described thus: dosing specification study, organoleptic odor evaluation, six volunteers. The conditions noted are these: for organoleptic odor evaluation: after three, 10 and 30 days. It is filed as in vivo, human. The procedure: Dosing specification studies were conducted in order to define a preferred minimum quantity for preferred use; although mindful of the differences in performance, more or less than the preferred minimum quantity could be utilized in alternate compositions. Initial test dosing was approximately 3.5 to 4.0 grams dispersed within each shoe, with excess bumped out through the footwear opening.
In the study, six volunteer participants with confirmed and self-recognized foot odor participated in trials to establish preferred upper and lower specification ranges. […] The left shoes were treated in a variable fashion, from an initial 3.5 gram dose to a final dose of 0.5 grams, via 0.5 gram increments. An organoleptic evaluation was performed by each test subject, and also be the inventor, after three days, 10 days, and 30 days of treatment for each dose.

For the compound cupric carbonate, CuCO3.Cu(OH)2, the contact dermatitis entry in series [1] (in vivo) was “contact dermatitis was completely eliminated”. In addition, in series [2], the antimicrobial properties entry was “confirming the existence of antimicrobial properties”. The “olfactory evaluation of footwear and feet” value in series [3] (1-1.25 g per shoe) is “no detectable hint of unpleasantness”. Moreover, the duration of effectiveness entry in series [3] (1-1.25 g per shoe, in many cases twelve months or more) is listed as “at least six”. The effectiveness in series [3] (for at least six months) is reported as ~100%. The “efficacy against foot odor in earlier testing” value in series [4] (4.0 gram dosing, positive control, right shoe) is on record as “shown the efficacy”. Moreover, the organoleptic odor evaluation entry in series [4] (dosed at or above 1.5 grams per shoe) was “no detectable trace of odor beyond that of damp footwear”; in series [4] (dosed at or below 1.0 gram per shoe) it was “some malodorous relief, but for a more limited period of time”.
As for `CC(=O)[O-].CC(=O)[O-].[Cu+2]` [acetate solution, cupric acetate], the antimicrobial properties result in series [2] was “confirming the existence of antimicrobial properties”.
Turning to cupric chloride, the contact dermatitis entry in series [1] (use in footwear) was “varying degrees of contact dermatitis”.
In the case of `O=C([O-])O.[Na+]` [sodium bicarbonate, reference compound], in series [3] (1-1.25 g per shoe), the “olfactory evaluation of footwear and feet” value is “no obvious change in degree of unpleasant odor”.
